Data as given in patent US3974140A, “Ureidoacetamido-penicillins” (Bayer Aktiengesellschaft, priority 1970, dated 1976).

Columns and labels:
Assay in all cases: MIC, liquid medium test tube series dilution test
Psdm. aerug. Bonn = format: cell-based, Pseudomonas aerug.; details: 24 hours, 37°C
How it was run: (§1)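 Values are minimum inhibitory concentrations in units/ml, taken as the first clear (non-turbid) tube of a dilution series. Tubes of complete liquid medium were incubated 24 h at 37°C.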

Psdm. aerug. Walter = format: cell-based, Pseudomonas aerug.; details: 24 hours, 37°C
How it was run: as §1

Klebsiella K 10 = format: cell-based; details: Klebsiella K 10, 24 hours, 37°C
How it was run: as §1

E. coli A 261 = format: cell-based; details: E. coli A 261, 24 hours, 37°C
How it was run: as §1

Klebsiella 63 = format: cell-based; details: Klebsiella 63, 24 hours, 37°C
How it was run: as §1

E. coli 14 = format: cell-based; details: E. coli 14, 24 hours, 37°C
How it was run: as §1

E. coli 183/58 = format: cell-based; details: E. coli 183/58, 24 hours, 37°C
How it was run: as §1

E. coli C 165 = format: cell-based; details: E. coli C 165, 24 hours, 37°C
How it was run: as §1

[1] = tested on: Streptoc. faec. ATCC 9790; format: cell-based; details: Strep. faec. (Enterococcus) ATCC 9790, 24 hours, 37°C
How it was run: as §1

Staph. aureus 1777 E = format: cell-based, Staphylococcus aureus; details: 24 hours, 37°C
How it was run: as §1

Staph. aureus 133 = format: cell-based, Staphylococcus aureus; details: Staph. aureus 133, 24 hours, 37°C
How it was run: as §1

Proteus vulg. 1017 = format: cell-based, Proteus vulgaris; details: Proteus vulg. 1017, 24 hours, 37°C
How it was run: as §1

Proteus vulg. 3400 = format: cell-based, Proteus vulgaris; details: Proteus vulg. 3400, 24 hours, 37°C
How it was run: as §1

MIC (Psdm. aerug. Bonn) | MIC (Psdm. aerug. Walter) | MIC (Klebsiella K 10) | MIC (E. coli A 261) | MIC (Klebsiella 63) | MIC (E. coli 14) [units/ml] | MIC (E. coli 183/58) [units/ml] | MIC (E. coli C 165) | MIC [1] | MIC (Staph. aureus 1777 E) | MIC (Staph. aureus 133) [units/ml] | MIC (Proteus vulg. 1017) | MIC (Proteus vulg. 3400) | SMILES | also measured
4-20 units/ml | 4-20 units/ml | 4-20 units/ml | 20-100 units/ml | 4-20 units/ml | < 0.8 | < 0.8 | 0.8-4 units/ml | 4-20 units/ml | 4-20 units/ml | 0.8 | 0.8-4 units/ml | 0.8-4 units/ml | CN(C(=O)N[C@@H](C(=O)N[C@@H]1C(=O)N2[C@@H]1SC(C)(C)[C@@H]2C(=O)O)c1ccccc1)C(=O)c1cc(Cl)ccc1Cl [Example 111, Sodium D(-)-α-(3-[2,5-dichlorobenzoyl]-3-methyl-ureido)-benzylpenicillin] | –
– | – | – | > 400 units/ml | – | – | – | – | 200 units/ml | 400 units/ml | 1.6 | – | – | CC(C)OC(=O)N(C)C(=O)N[C@@H](C(=O)N[C@@H]1C(=O)N2[C@@H]1SC(C)(C)[C@@H]2C(=O)O)c1ccccc1 [Example 11 C, Sodium D(-)-α-(3-isopropoxycarbonyl-3-methyl-ureido)-benzyl-penicillin] | MIC (Psdm. aerug. Bonn; listed as 11 C): 400 units/ml; MIC (Psdm. aerug. Bonn; listed as (A) of Example 11): 50 units/ml; MIC (Psdm. aerug. Walter; listed as 11 C): 200 units/ml; MIC (Psdm. aerug. Walter; listed as (A) of Example 11): 100 units/ml; MIC (Klebsiella K 10; listed as 11 C): 50 units/ml; MIC (Klebsiella 63; listed as 11 C): 100 units/ml; MIC (E. coli 14; listed as 11 C): 6.3 units/ml; MIC (E. coli 14; listed as (A) of Example 11): 6.25 units/ml; MIC (E. coli 183/58; listed as 11 C): 12.5 units/ml; MIC (E. coli 183/58; listed as (A) of Example 11): 12.5 units/ml; MIC (E. coli C 165; listed as 11 C): 50 units/ml; MIC (E. coli C 165; listed as (A) of Example 11): 50 units/ml; MIC (Proteus vulg. 1017; listed as 11 C): 100 units/ml; MIC (Proteus vulg. 3400; listed as 11 C): 100 units/ml
100 units/ml | 50 units/ml | 50 units/ml | > 400 units/ml | 200 units/ml | 3.1 | 25 | 25 units/ml | 100 units/ml | 200 units/ml | 3.1 | 12.5 units/ml | 50 units/ml | CC1(C)S[C@@H]2[C@H](NC(=O)[C@H](NC(=O)N3CCCCC3=O)c3ccccc3)C(=O)N2[C@H]1C(=O)O [Example 134, Sodium D(-)-α-(1-piperidin-2-on-1-yl-carbonylamino)-benzylpenicillin] | –
6.25 units/ml | 12.5 units/ml | 50 units/ml | 400 units/ml | 50 units/ml | < 0.78 | < 0.78 | 1.56 units/ml | 50 units/ml | 200 units/ml | < 0.78 | 1.56 units/ml | 3.12 units/ml | CN(C(=O)C=Cc1ccccc1)C(=O)N[C@@H](C(=O)N[C@@H]1C(=O)N2[C@@H]1SC(C)(C)[C@@H]2C(=O)O)c1ccccc1 [Example 63, Sodium D(-)-α-(3-cinnamoyl-3-methyl-ureido)-benzylpenicillin] | –

SMILES | MIC (Psdm. aerug. Bonn) | MIC (Psdm. aerug. Walter) | MIC (Klebsiella K 10) | MIC (E. coli A 261) | MIC (Klebsiella 63) | MIC (E. coli 14) [units/ml] | MIC (E. coli 183/58) [units/ml] | MIC (E. coli C 165) | MIC [1] | MIC (Staph. aureus 1777 E) | MIC (Staph. aureus 133) [units/ml] | MIC (Proteus vulg. 1017) | MIC (Proteus vulg. 3400) | also measured
CCCCOC(=O)N(C)C(=O)N[C@@H](C(=O)N[C@@H]1C(=O)N2[C@@H]1SC(C)(C)[C@@H]2C(=O)O)c1ccccc1 [Example 98, Sodium D(-)-α-(3-n-butoxycarbonyl-3-methyl-ureido)-benzylpenicillin] | 12.5 units/ml | 25 units/ml | 400 units/ml | > 400 units/ml | 400 units/ml | 3.12 | 6.25 | 6.25 units/ml | 100 units/ml | 200 units/ml | < 0.78 | 12.5 units/ml | 25 units/ml | MIC (Psdm. aerug. Bonn; listed as (B) of Example 28): 12.5 units/ml; MIC (Psdm. aerug. Walter; listed as (B) of Example 28): 25 units/ml; MIC (E. coli 14; listed as (B) of Example 28): 3.12 units/ml; MIC (E. coli 183/58; listed as (B) of Example 28): 6.25 units/ml; MIC (E. coli C 165; listed as (B) of Example 28): 6.25 units/ml; MIC (Staph. aureus 133; listed as (B) of Example 28): < 0.78 units/ml; MIC (Proteus vulg. 1017; listed as (B) of Example 28): 12.5 units/ml; MIC (Proteus vulg. 3400; listed as (B) of Example 28): 25 units/ml
